Target: T1, CDK2 (Homo sapiens, UniProt P24941)
T1 construct: endogenous in cells; host or cells: OVCAR3 cells
Experiment: Phospho-RB measurement in OVCAR3 cells (HTRF phospho-RB cellular kit)
Format: cell-based
Conditions: 24 h compound treatment
In short: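 IC50 came from a four-parameter logistic fit of the DMSO-normalized TR-FRET ratio (665/620 nm). That ratio reflects RB phosphorylation at S807/811, read with an HTRF antibody pair 4 h after adding lysate at room temperature.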

[1] = inhibition of RB phosphorylation at S807/811 (HTRF, TR-FRET ratio 665/620), 0.3 to 10,000 nM

Compound | IC50 [1] [µM] | IC50 (inhibition of RB phosphorylation at S807/811 (HTRF)) [µM]
CC1CCN(S(=O)(=O)Nc2cccc(-c3nc(C(C)(C)C)sc3-c3ccnc(NC4CCN(S(C)(=O)=O)CC4)n3)c2F)CC1 [Example 63, N-(3-(2-(tert-butyl)-5-(2-((1-(methylsulfonyl)-piperidin-4-yl)amino)-pyrimidin-4-yl)thiazol-4-yl)-2-fluoro-phenyl)-4-methylpiperidine-1-sulfonamide] | 0.679 | –
CC(C)(C)c1nc(-c2cccc(NS(=O)(=O)N3CCN(c4ccccc4)CC3)c2F)c(-c2ccnc(NC3CCN(S(C)(=O)=O)CC3)n2)s1 [Example 64, N-(3-(2-(tert-butyl)-5-(2-((1-(methylsulfonyl)-piperidin-4-yl)amino)-pyrimidin-4-yl)thiazol-4-yl)-2-fluoro-phenyl)-4-phenylpiperazine-1-sulfonamide] | 0.735 | –
CC(C)(C)c1nc(-c2cccc(NS(=O)(=O)N3CCC(Oc4ccccc4)CC3)c2F)c(-c2ccnc(NC3CCN(S(C)(=O)=O)CC3)n2)s1 [Example 65, N-(3-(2-(tert-butyl)-5-(2-((1-(methylsulfonyl)-piperidin-4-yl)amino)-pyrimidin-4-yl)thiazol-4-yl)-2-fluoro-phenyl)-4-phenoxypiperidine-1-sulfonamide] | 0.588 | –
CC1CCCCN1S(=O)(=O)Nc1cccc(-c2nc(C(C)(C)C)sc2-c2ccnc(NC3CCN(S(C)(=O)=O)CC3)n2)c1F (stereo not shown) [Example 66, N-(3-(2-(tert-butyl)-5-(2-((1-(methylsulfonyl)-piperidin-4-yl)amino)-pyrimidin-4-yl)thiazol-4-yl)-2-fluoro-phenyl)-2-methylpiperidine-1-sulfonamide] | > 5 | –
CC(C)(C)c1nc(-c2cccc(NS(=O)(=O)N3CCCCC3c3ccccc3)c2F)c(-c2ccnc(NC3CCN(S(C)(=O)=O)CC3)n2)s1 (stereo not shown) [Example 67, N-(3-(2-(tert-butyl)-5-(2-((1-(methylsulfonyl)-piperidin-4-yl)amino)-pyrimidin-4-yl)thiazol-4-yl)-2-fluoro-phenyl)-2-phenylpiperidine-1-sulfonamide] | 8.26 | –
CC(C)(C)c1nc(-c2cccc(NS(=O)(=O)N3Cc4ccccc4C3)c2F)c(-c2ccnc(NC3CCN(S(C)(=O)=O)CC3)n2)s1 [Example 69] | 0.0889 | –
CC(C)(C)c1nc(-c2cccc(NS(=O)(=O)N3Cc4ccc(F)cc4C3)c2F)c(-c2ccnc(NC3CCN(S(C)(=O)=O)CC3)n2)s1 [Example 70, N-(3-(2-(tert-butyl)-5-(2-((1-(methylsulfonyl)-piperidin-4-yl)amino)-pyrimidin-4-yl)thiazol-4-yl)-2-fluoro-phenyl)-5-fluoroisoindoline-2-sulfonamide] | 0.094 | –
CC(C)(C)c1nc(-c2cccc(NS(=O)(=O)N3Cc4cccc(F)c4C3)c2F)c(-c2ccnc(NC3CCN(S(C)(=O)=O)CC3)n2)s1 [Example 71, N-(3-(2-(tert-butyl)-5-(2-((1-(methylsulfonyl)-piperidin-4-yl)amino)-pyrimidin-4-yl)thiazol-4-yl)-2-fluoro-phenyl)-4-fluoroisoindoline-2-sulfonamide] | 0.076 | –
COc1ccc2c(c1)CN(S(=O)(=O)Nc1cccc(-c3nc(C(C)(C)C)sc3-c3ccnc(NC4CCN(S(C)(=O)=O)CC4)n3)c1F)C2 [Example 72, N-(3-(2-(tert-butyl)-5-(2-((1-(methylsulfonyl)-piperidin-4-yl)amino)-pyrimidin-4-yl)thiazol-4-yl)-2-fluoro-phenyl)-5-methoxyisoindoline-2-sulfonamide] | 0.185 | –
CC(C)(C)c1nc(-c2cccc(NS(=O)(=O)N3CCc4ccccc43)c2F)c(-c2ccnc(NC3CCN(S(C)(=O)=O)CC3)n2)s1 [Example 73, N-(3-(2-(tert-butyl)-5-(2-((1-(methylsulfonyl)-piperidin-4-yl)amino)-pyrimidin-4-yl)thiazol-4-yl)-2-fluoro-phenyl)indoline-1-sulfonamide] | 0.058 | –
CC(C)(C)c1nc(-c2cccc(NS(=O)(=O)N3CCc4ccccc4C3)c2F)c(-c2ccnc(NC3CCN(S(C)(=O)=O)CC3)n2)s1 [Example 74, N-(3-(2-(tert-butyl)-5-(2-((1-(methylsulfonyl)-piperidin-4-yl)amino)-pyrimidin-4-yl)thiazol-4-yl)-2-fluoro-phenyl)-3,4-dihydro-isoquinoline-2(1H)-sulfonamide] | 0.18 | –
CNS(=O)(=O)N1CCC(Nc2nccc(-c3sc(C(C)(C)C)nc3-c3cccc(NS(=O)(=O)N4Cc5ccccc5C4)c3F)n2)CC1 [Example 75, N-(3-(2-(tert-butyl)-5-(2-((1-(N-methylsulfamoyl)piperidin-4-yl)amino)-pyrimidin-4-yl)thiazol-4-yl)-2-fluoro-phenyl)-isoindoline-2-sulfonamide] | 0.065 | –
CC(C)(C)c1nc(-c2cccc(NS(=O)(=O)N3Cc4ccccc4C3)c2F)c(-c2ccnc(NC3CCN(S(N)(=O)=O)CC3)n2)s1 [Example 76, N-(3-(2-(tert-butyl)-5-(2-((1-sulfamoyl-piperidin-4-yl)amino)pyrimidin-4-yl)thiazol-4-yl)-2-fluorophenyl)-isoindoline-2-sulfonamide] | 0.065 | –
CC(C)(C)c1nc(-c2cccc(NS(=O)(=O)N3Cc4cc(F)c(F)cc4C3)c2F)c(-c2ccnc(NC3CCN(S(C)(=O)=O)CC3)n2)s1 [Example 77] | 0.367 | –
COc1cccc2c1CN(S(=O)(=O)Nc1cccc(-c3nc(C(C)(C)C)sc3-c3ccnc(NC4CCN(S(C)(=O)=O)CC4)n3)c1F)C2 [Example 78, N-(3-(2-(tert-butyl)-5-(2-((1-(methylsulfonyl)-piperidin-4-yl)amino)-pyrimidin-4-yl)thiazol-4-yl)-2-fluoro-phenyl)-4-methoxyisoindoline-2-sulfonamide] | 0.0656 | –

The remaining lines, values ahead:

IC50 [1] [µM] | IC50 (inhibition of RB phosphorylation at S807/811 (HTRF)) [µM] | Compound
0.22 | – | CC(C)(C)c1nc(-c2cccc(NS(=O)(=O)N3Cc4ccccc4C3)c2F)c(-c2ccnc(Nc3ccc(N4CCNCC4)cc3)n2)s1 [Example 79, N-(3-(2-(tert-butyl)-5-(2-((4-(piperazin-1-yl)-phenyl)amino)pyrimidin-4-yl)thiazol-4-yl)-2-fluorophenyl)-isoindoline-2-sulfonamide]
0.172 | – | CC(C)(C)c1nc(-c2cccc(NS(=O)(=O)N3CCCc4ccccc4C3)c2F)c(-c2ccnc(NC3CCN(S(C)(=O)=O)CC3)n2)s1 [Example 80, N-(3-(2-(tert-butyl)-5-(2-((1-(methylsulfonyl)-piperidin-4-yl)amino)-pyrimidin-4-yl)thiazol-4-yl)-2-fluorophenyl)-1,3,4,5-tetrahydro-2H-benzo[c]azepine-2-sulfonamide]
3.73 | – | CC(C)(C)c1nc(-c2cccc(NS(=O)(=O)N3CCc4ccccc4CC3)c2F)c(-c2ccnc(NC3CCN(S(C)(=O)=O)CC3)n2)s1 [Example 81, N-(3-(2-(tert-butyl)-5-(2-((1-(methylsulfonyl)-piperidin-4-yl)amino)-pyrimidin-4-yl)thiazol-4-yl)-2-fluoro-phenyl)-1,2,4,5-tetrahydro-3H-benzo[d]azepine-3-sulfonamide]
0.85 | – | CC(C)(C)c1nc(-c2cccc(NS(=O)(=O)N3CCCCc4ccccc43)c2F)c(-c2ccnc(NC3CCN(S(C)(=O)=O)CC3)n2)s1 [Example 82, N-(3-(2-(tert-butyl)-5-(2-((1-(methylsulfonyl)piperidin-4-yl)amino)-pyrimidin-4-yl)thiazol-4-yl)-2-fluorophenyl)-2,3,4,5-tetrahydro-1H-benzo[b]azepine-1-sulfonamide]
1.47 | – | CC(C)(C)c1nc(-c2cccc(NS(=O)(=O)N3CCn4cncc4C3)c2F)c(-c2ccnc(NC3CCN(S(C)(=O)=O)CC3)n2)s1 [Example 83, N-(3-(2-(tert-butyl)-5-(2-((1-(methylsulfonyl)-piperidin-4-yl)amino)-pyrimidin-4-yl)thiazol-4-yl)-2-fluoro-phenyl)-5,6-dihydroimidazo [1,5-a]-pyrazine-7 (8H)-sulfonamide]
1.92 | – | CC(C)(C)c1nc(-c2cccc(NS(=O)(=O)N3CCn4ccnc4C3)c2F)c(-c2ccnc(NC3CCN(S(C)(=O)=O)CC3)n2)s1 [Example 84, N-(3-(2-(tert-butyl)-5-(2-((1-(methylsulfonyl)-piperidin-4-yl)amino)-pyrimidin-4-yl)thiazol-4-yl)-2-fluoro-phenyl)-5,6-dihydroimidazo [1,2-a]-pyrazine-7(8H)-sulfonamide]
0.394 | – | Cn1ncc2c1CN(S(=O)(=O)Nc1cccc(-c3nc(C(C)(C)C)sc3-c3ccnc(NC4CCN(S(C)(=O)=O)CC4)n3)c1F)C2 [Example 85, N-(3-(2-(tert-butyl)-5-(2-((1-(methylsulfonyl)-piperidin-4-yl)amino)-pyrimidin-4-yl)thiazol-4-yl)-2-fluoro-phenyl)-1-methyl-4,6-dihydro-pyrrolo[3,4-c]pyrazole-5(1H)-sulfonamide]
0.484 | – | Cn1cc2c(n1)CN(S(=O)(=O)Nc1cccc(-c3nc(C(C)(C)C)sc3-c3ccnc(NC4CCN(S(C)(=O)=O)CC4)n3)c1F)C2 [Example 86, N-(3-(2-(tert-butyl)-5-(2-((1-(methylsulfonyl)-piperidin-4-yl)amino)-pyrimidin-4-yl)thiazol-4-yl)-2-fluoro-phenyl)-2-methyl-2,6-dihydro-pyrrolo[3,4-c]pyrazole-5(4H)-sulfonamide]
0.325 | – | COc1cc2c(cc1OC)CN(S(=O)(=O)Nc1cccc(-c3nc(C(C)(C)C)sc3-c3ccnc(NC4CCN(S(C)(=O)=O)CC4)n3)c1F)C2 [Example 87, N-(3-(2-(tert-butyl)-5-(2-((1-(methylsulfonyl)-piperidin-4-yl)amino)-pyrimidin-4-yl)thiazol-4-yl)-2-fluorophenyl)-5,6-dimethoxy-isoindoline-2-sulfonamide]
– | > 10 | CC(=O)N1CCN(S(=O)(=O)Nc2cccc(-c3nc(C(C)(C)C)sc3-c3ccnc(NC4CCN(S(C)(=O)=O)CC4)n3)c2F)CC1 [Example 88, 4-acetyl-N-(3-(2-(tert-butyl)-5-(2-((1-(methylsulfonyl)piperidin-4-yl)amino)-pyrimidin-4-yl)thiazol-4-yl)-2-fluoro-phenyl)-piperazine-1-sulfonamide]

— US20260274833A1 (NiKang Therapeutics, Inc., priority 2022, published 2026)
